From ChEMBL document CHEMBL1136641, “Anastatins A and B, new skeletal flavonoids with hepatoprotective activities from the desert plant Anastatica hierochuntica” (2003)

Legend:
Mus musculus [1] = organism: Mus musculus; assay: Inhibitory activity derived from Anastatica hierochuntica on D-Gal-induced cytotoxicity in primary cultured mouse hepatocytes at a concentration of 10 uM; format: functional; conditions: Hepatocyte
Mus musculus [2] = organism: Mus musculus; assay: Inhibitory activity derived from Anastatica hierochuntica on D-Gal-induced cytotoxicity in primary cultured mouse hepatocytes at a concentration of 30 uM; format: functional; conditions: Hepatocyte
Mus musculus [3] = organism: Mus musculus; assay: Inhibitory activity derived from Anastatica hierochuntica on D-Gal-induced cytotoxicity in primary cultured mouse hepatocytes at a concentration of 0 uM; format: functional, Hepatocyte
Mus musculus [4] = organism: Mus musculus; assay: Inhibitory activity derived from Anastatica hierochuntica on D-Gal-induced cytotoxicity in primary cultured mouse hepatocytes at a concentration of 3 uM; format: functional; conditions: Hepatocyte

Structure (SMILES) | inhibition at 10 µM (Mus musculus [1]) [%] | inhibition at 30 µM (Mus musculus [2]) [%] | Inhibition (Mus musculus [3]) [%] | inhibition at 3 µM (Mus musculus [4]) [%]
O=C1c2c(O)cc(O)cc2O[C@@H](c2ccc(O)c(O)c2)[C@H]1O [(+)-EPITAXIFOLIN] | 11 | 21.7 | 0 | 2.1
O=C1C[C@@H](c2ccc(O)cc2)Oc2cc(O)cc(O)c21 [NARINGENIN] | 9.3 | 43.1 | 0 | 2.9
O=C1C[C@@H](c2ccc(O)cc2)Oc2cc3oc4cc(O)c(O)cc4c3c(O)c21 [ANASTATIN A] | 31.5 | 46.2 | 0 | 17.2
COc1cc(C2Oc3cc([C@H]4Oc5cc(O)cc(O)c5C(=O)[C@@H]4O)ccc3OC2CO)ccc1O (stereo partly specified) [SILIBININ] | 7.7 | 45.2 | 0 | 4.8
O=C1C[C@@H](c2ccc(O)c(O)c2)Oc2cc(O)cc(O)c21 [ERIODICTYOL] | 8.3 | 27.3 | 0 | 5.9
O=C1c2c(O)cc(O)cc2O[C@H](c2ccc(O)cc2)[C@H]1O [DIHYDROKAEMPFEROL] | 14.2 | 33.2 | 0 | 7.8
COc1cc([C@H]2Oc3cc(O)cc(O)c3C(=O)[C@@H]2O)ccc1O | 7.3 | 36.7 | 0 | 4
O=C1C[C@@H](c2ccc(O)cc2)Oc2c1c(O)cc1oc3cc(O)c(O)cc3c21 [ANASTATIN B] | 40.5 | 55 | 0 | 28.6
O=C1c2c(O)cc(O)cc2O[C@H](c2ccc(O)c(O)c2)[C@H]1O [(+)-TAXIFOLIN] | 11.7 | 13 | 0 | 9.6
